# Measurements taken from the supplement of paper PMC10307832.
# Experiments:
# Experiment in all cases: relative viability (nuclei count vs DMSO), 5 days (fraction); higher = more cells survive
# Tozasertib + Alpelisib = compound: Cc1cc(Nc2cc(N3CCN(C)CC3)nc(Sc3ccc(NC(=O)C4CC4)cc3)n2)n[nH]1 [Tozasertib] + Cc1nc(NC(=O)N2CCC[C@H]2C(N)=O)sc1-c1ccnc(C(C)(C)C(F)(F)F)c1 [Alpelisib] (partner 2 µM)
# Method in brief: (§1)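 Lung cancer cell lines were pin-tool dosed in 1536-well plates on the day after seeding, with either a lone drug or a fixed anchor-drug dose plus five library-drug doses (not always all listed) in √10 steps. Nuclei were counted on 4× images after 5 days. Relative viability is the ratio of treated-well to vehicle-well nuclei counts, with each value a median of duplicate plates.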
# Tozasertib + Decitabine = compound: Cc1cc(Nc2cc(N3CCN(C)CC3)nc(Sc3ccc(NC(=O)C4CC4)cc3)n2)n[nH]1 [Tozasertib] + Nc1ncn([C@H]2C[C@H](O)[C@@H](CO)O2)c(=O)n1 [Decitabine] (partner 2 µM)
# Method in brief: as §1
# Tozasertib + Trametinib = compound: Cc1cc(Nc2cc(N3CCN(C)CC3)nc(Sc3ccc(NC(=O)C4CC4)cc3)n2)n[nH]1 [Tozasertib] + CC(=O)Nc1cccc(-n2c(=O)n(C3CC3)c(=O)c3c(Nc4ccc(I)cc4F)n(C)c(=O)c(C)c32)c1 [Trametinib] (partner 0.02 µM)
# Method in brief: as §1
# Tozasertib + Foretinib = compound: Cc1cc(Nc2cc(N3CCN(C)CC3)nc(Sc3ccc(NC(=O)C4CC4)cc3)n2)n[nH]1 [Tozasertib] + COc1cc2c(Oc3ccc(NC(=O)C4(C(=O)Nc5ccc(F)cc5)CC4)cc3F)ccnc2cc1OCCCN1CCOCC1 [Foretinib] (partner 0.25 µM)
# Method in brief: as §1
# Tozasertib + Linsitinib = compound: Cc1cc(Nc2cc(N3CCN(C)CC3)nc(Sc3ccc(NC(=O)C4CC4)cc3)n2)n[nH]1 [Tozasertib] + C[C@]1(O)C[C@@H](c2nc(-c3ccc4ccc(-c5ccccc5)nc4c3)c3c(N)nccn32)C1 [Linsitinib] (partner 1 µM)
# Method in brief: as §1
Cell Line,relative viability (Tozasertib + Alpelisib; first compound 0.004 µM),relative viability (Tozasertib + Alpelisib; first compound 0.01265 µM),relative viability (Tozasertib + Alpelisib; first compound 0.1265 µM),relative viability (Tozasertib + Decitabine; first compound 0.004 µM),relative viability (Tozasertib + Decitabine; first compound 0.01265 µM),relative viability (Tozasertib + Decitabine; first compound 0.04 µM),relative viability (Tozasertib + Decitabine; first compound 0.1265 µM),relative viability (Tozasertib + Trametinib; first compound 0.01265 µM),relative viability (Tozasertib + Trametinib; first compound 0.04 µM),relative viability (Tozasertib + Trametinib; first compound 0.1265 µM),relative viability (Tozasertib + Foretinib; first compound 0.004 µM),relative viability (Tozasertib + Foretinib; first compound 0.04 µM),relative viability (Tozasertib + Foretinib; first compound 0.1265 µM),relative viability (Tozasertib + Linsitinib; first compound 0.004 µM),relative viability (Tozasertib + Linsitinib; first compound 0.01265 µM),relative viability (Tozasertib + Linsitinib; first compound 0.04 µM),relative viability (Tozasertib + Linsitinib; first compound 0.1265 µM),relative viability (Tozasertib + Alpelisib; first compound 0.04 µM),relative viability (Tozasertib + Trametinib; first compound 0.004 µM),relative viability (Tozasertib + Foretinib; first compound 0.01265 µM)
NCI-H1734,0.656,0.64,0.469,0.501,0.51,0.561,0.401,0.793,0.678,0.403,0.888,0.824,0.414,0.894,0.938,0.938,0.616,–,–,–
NCI-H1755,0.518,0.908,0.629,0.744,–,0.62,0.644,0.696,0.849,0.742,0.984,0.893,0.743,0.976,0.948,0.999,0.865,0.948,0.733,0.455
NCI-H1793,0.578,0.699,–,0.555,0.495,0.508,0.397,0.385,0.415,0.328,–,0.596,0.389,0.909,0.764,0.853,0.625,0.872,0.442,0.56
NCI-H1915,1.07,1.04,0.95,0.268,0.263,0.236,0.261,0.298,0.336,0.264,1.16,1.06,0.862,1.1,1.06,–,1.05,1.02,0.261,1.02
NCI-H1944,0.785,0.75,0.495,0.404,0.396,0.403,0.349,0.392,0.446,0.306,0.876,0.72,0.459,1.12,1.25,1.18,0.798,0.891,0.396,0.753
NCI-H1975,0.747,0.749,0.586,0.371,0.462,0.382,0.36,0.321,0.826,0.322,1,1.03,0.844,0.961,1.06,1.04,0.953,0.763,0.385,1.03
NCI-H1993,0.63,0.795,0.519,0.549,0.542,–,0.574,0.396,0.5,0.54,0.944,0.848,0.726,0.8,0.668,0.649,0.616,0.727,0.444,0.732
NCI-H2009,1.18,1.17,1.14,0.401,0.352,0.416,0.359,0.288,0.341,0.216,1.21,1.33,0.994,1.19,1.22,1.15,1.19,1.15,0.288,1.19
NCI-H2023,0.645,0.541,0.628,0.223,0.237,0.217,0.169,0.455,0.535,0.425,0.747,0.94,0.652,0.626,0.633,0.694,0.628,0.539,0.557,0.968
NCI-H2085,0.999,0.963,0.804,0.578,0.508,0.538,0.485,0.6,0.504,0.476,1.03,1.03,0.703,0.966,0.865,0.949,0.649,0.873,0.681,0.767
NCI-H2087,1.08,1.01,0.913,0.244,0.257,0.306,0.143,0.187,0.218,0.126,1.16,1.15,0.613,0.925,1.13,1.08,0.841,1.21,0.185,0.796
NCI-H2126,0.819,0.748,0.769,0.551,0.58,0.612,0.606,0.535,0.632,0.552,1.19,1.29,1.12,0.623,0.728,0.825,0.716,0.806,0.562,1.24
NCI-H2347,0.996,1.09,0.963,0.567,0.365,0.627,0.74,0.299,0.317,0.256,1.17,0.842,0.87,0.978,1,0.964,0.914,0.871,0.279,0.908
NCI-H2405,0.723,0.812,0.807,0.721,0.699,0.715,0.683,0.658,0.652,0.611,1.09,1.01,0.974,1.03,0.944,–,0.962,0.778,0.649,1
NCI-H3122,0.808,0.809,0.749,0.444,0.356,0.48,0.494,0.244,0.239,0.23,0.969,0.977,0.944,0.994,0.997,0.962,1.05,0.847,0.198,0.94
PC-3 [JPC-3],0.835,1.03,0.959,0.808,0.889,0.828,0.793,0.72,0.762,0.715,1,1.07,0.961,0.902,0.935,0.971,0.972,1.03,0.502,1.06
